Results: patent publication US11008620B2, “Methods for treating cancer resistant to ErbB therapeutics” (Dana-Farber Cancer Institute, Inc., priority 2007, dated 2021)

Legend:
HCC827 cells [1] = test: crystal violet staining of viable HCC827 cells, gefitinib and HGF; type: cell-based; conditions: 10 days, gefitinib 1 uM, HGF 50, 10 or 2 ng/ml (FIG. 10 bottom)
Procedure: […] cells were seeded in a 10 cm petri dish and treated with the indicated conditions for 10 days. Gefitnib was used at 1 uM, and HGF was used at 50, 10, or 2 ng/ml. The plates were then stained with crystal violet to visualize viable cells.

HCC827 cells [2] = test: Western blot of AKT phosphorylation in HCC827 treated with gefitinib and HGF; type: cell-based; conditions: gefitinib alone or with HGF, 6 hours (FIG. 10 top right)
HCC827 cells [3] = test: MTS survival assay of HCC827 cells with HGF in the presence of gefitinib; type: cell-based; conditions: 50 ng/ml of HGF (FIG. 10 top left)
Description: MET activity was induced by treating HCC827 cells with its ligand, HGF (hepatocyte growth factor).

HCC827 GR cells [4] = test: Western blot of EGFR/ERBB3/PI3K/Akt signaling in HCC827 GR cells; type: cell-based; conditions: 1 μM each drug, 6 hours (FIG. 2B)
[5] = system: ERBB3 and Gab1 association with p85 in HCC827 GR cells; test: anti-p85 immunoprecipitation in HCC827 GR cells; type: cell-based; conditions: 1 μM each drug, 6 hours (FIG. 2C)
[6] = system: H1993 NSCLC cells, SNU638 and MKN45 gastric cancer cells; test: p85 immunoprecipitation and Western blot in MET amplified cell lines; conditions: 1 μM, 6 hours (FIG. 3A)
Procedure: Lysates were immunoprecipitated with anti-p85 antibodies and the immunoprecipitates were probed with anti-phospho-tyrosine, anti-ERBB-3 and anti-p85 antibodies (* indicates ERBB3 on the PTyr blot). In parallel, the lysates were analyzed by Western blotting and probed with the indicated antibodies.
Cells grown under the previously specified conditions were lysed in the following lysis buffer: 20 mM Tris, pH 7.4/150 mM NaCl/1% Nonidet P-40/10% glycerol/1 mM EDTA/1 mM EGTA/5 mM sodium pyrophosphate/50 mM NaF/10 nM (3-glycerophosphate/1 mM sodium vanadate/0.5 mM DTT/4 μg/ml leupeptin/4 μg/ml pepstatin/4 μg/ml apoprotein/1 mM PMSF. After cell lysis, lysates were centrifuged at 16,000×g for 5 min at 4° C. The supernatant was used for subsequent procedures. Western blot analyses were conducted after separation by SDS/PAGE electrophoresis and transfer to nitrocellulose membranes. Immunoblotting was performed according to the antibody manufacturers' recommendations. Antibody binding was detected using an enhanced chemiluminescence system (New England Nuclear Life Science Products Inc.).
Anti-ErbB-3 antibody was obtained from Lab Vision. […] The total Met (C-28) antibody was purchased from Santa Cruz Biotechnology (Santa Cruz, Calif.).

[7] = system: CHO cells co-expressing MET and ERBB3; conditions: PHA-665,752 1 μM
Procedure: Lysates were immunoprecipitated with anti-p85 antibodies and the immunoprecipitates were probed with anti-phospho-tyrosine, anti-ERBB-3 and anti-p85 antibodies (* indicates ERBB3 on the PTyr blot). In parallel, the lysates were analyzed by Western blotting and probed with the indicated antibodies. […] Lentiviral shRNA constructs containing a scrambled (SC) sequence, ERBB3 specific sequence, a control sequence (CTRL) or GFP were infected into SNU638 cells (Methods). Seventy-two hours following infection, the cells were lysed and probed with indicated antibodies. […] C. […] Growth of SNU-638 cells was assayed by an MTS assay 5 days following infection of shRNA constructs in B. Growth is normalized to the SC shRNA. […] The resulting proteins were lysed and probed with the indicated antibodies. […] The resulting lysates were probed with either ERBB3 or MET.

HCC827 GR cells [8] = test: MTS survival assay, gefitinib-resistant HCC827 GR cells; conditions: HCC827 GR cell lines / GR5; single drugs or combination
Procedure: This assay, a colorimetric method for determining the number of viable cells, is based on the bioreduction of 3-(4,5-dimethylthiazol-2-yl)-5-(3-carboxymethoxyphenyl)-2-(4-sulfophenyl)-2H-tetrazolium (MTS) by cells to a formazan product that is soluble in cell culture medium, can be detected spectrophotometrically and was performed according to previously established methods (3, 31, 10).
All experimental points were set up in six to twelve wells and all experiments were repeated at least three times. […] The curves were fitted using a non-linear regression model with a sigmoidal dose response.

[9] = system: EGFR mutant HCC827 cells and ERBB2 amplified BT474 cells; test: p85 immunoprecipitation and Western blot in control cell lines HCC827 and BT474; type: cell-based; conditions: 1 μM, 6 hours (FIG. 3A)

Row | Compound | viable cells (crystal violet) (HCC827 cells [1]) | AKT phosphorylation (HCC827 cells [2]) | survival in the presence of gefitinib (MTS) (HCC827 cells [3]) | ERBB3 and Akt phosphorylation (HCC827 GR cells [4]) | ERBB3 and Akt phosphorylation (HCC827 GR cells [4]; listed as PHA-665752) | co-precipitation of ERBB3 and Gab1 with p85 [5] | ERBB3 and Akt phosphorylation [6] | ERBB3 association with p85 [6] | ERBB3 phosphorylation ([7]; CHO co-expressing MET and ERBB3, gefitinib 3 mM (so in the source), lapatinib 3 μM, PP2 10 μM, 6 hours (FIG. 3D)) | p85 co-precipitation with ERBB3 ([7]; CHO transfected with MET and ERBB3, gefitinib 3 μM, lapatinib 3 μM (FIG. 3E)) | growth of HCC827 GR cells under drug (MTS) (HCC827 GR cells [8]) | PI3K signaling [9]
1 | HGF: hepatocyte growth factor, ligand of MET | increases with increased concentrations | at least partially reversed | markedly improved survival | – | – | – | – | – | – | – | – | –
2 | Cc1[nH]c(/C=C2\C(=O)Nc3ccc(S(=O)(=O)Cc4c(Cl)cccc4Cl)cc32)c(C)c1C(=O)N1CCC[C@@H]1CN1CCCC1 [PHA-665,752] | – | – | – | minimal effect on P-Akt levels | no significant effect on p-ERBB3 or p-AKT | blocks Gab-1 association with p85 | only inhibited | disrupted | blocked | inhibited | resistant | has no effect on PI3K signaling
3 | CC#CC(=O)Nc1ccc2ncnc(Nc3cccc(Br)c3)c2c1 [CL-387,785] | – | – | – | – | – | – | – | – | – | – | did not suppress the growth | –
